Source: the NIST ThermoML archive (doi:10.1007/s10765-007-0223-x)
“And” between values parts separate entries of the source, which are not always exact repeats. Identical values can stand only once.

How the values were obtained:
[1] = 101 kPa, Liquid; for speed of sound: Single path-length method
[2] = xn = mol fraction of the nth substance listed; conditions: 101 kPa, Liquid; for speed of sound: Single path-length method

CC(C)CC(C)(C)C [2,2,4-trimethylpentane]
[1]
Conditions | mass density [kg/m3] | speed of sound [m/s]
288.15 K | 695.948 | 1124.3
290.65 K | 693.91 | 1113.8
293.15 K | 691.861 | 1103.3
295.65 K | 689.809 | 1092.7
298.15 K | 687.749 | 1082.2
300.65 K | 685.687 | 1071.7
303.15 K | 683.618 | 1061.3
305.65 K | 681.542 | 1050.9
308.15 K | 679.459 | 1040.5
310.65 K | 677.373 | 1030.2
313.15 K | 675.278 | 1019.9
315.65 K | 673.177 | 1009.7
318.15 K | 671.069 | 999.53
320.65 K | 668.954 | 989.37
323.15 K | 666.832 | 979.25

CC(C)CC(C)(C)C [2,2,4-trimethylpentane] + COC(C)(C)C
[2], x2 = 0
Conditions | mass density [kg/m3] | speed of sound [m/s]
288.15 K | 695.948 | 1124.3
290.65 K | 693.91 | 1113.8
293.15 K | 691.861 | 1103.3
295.65 K | 689.809 | 1092.7
298.15 K | 687.749 | 1082.2
300.65 K | 685.687 | 1071.7
303.15 K | 683.618 | 1061.3
305.65 K | 681.542 | 1050.9
308.15 K | 679.459 | 1040.5
310.65 K | 677.373 | 1030.2
313.15 K | 675.278 | 1019.9
315.65 K | 673.177 | 1009.7
318.15 K | 671.069 | 999.53
320.65 K | 668.954 | 989.37
323.15 K | 666.832 | 979.25

COC(C)(C)C [2-methoxy-2-methylpropane]
[1]
Conditions | mass density | speed of sound
288.15 K | 744.861 kg/m3 | 1083.4 m/s and 1082.1 m/s
290.65 K | 742.259 kg/m3 | 1071.6 m/s and 1070.6 m/s
293.15 K | 739.654 kg/m3 | 1060 m/s and 1059.1 m/s
295.65 K | 737.036 kg/m3 | 1048.5 m/s and 1047.8 m/s
298.15 K | 734.406 kg/m3 | 1036.9 m/s and 1036.6 m/s
300.65 K | 731.766 kg/m3 | 1025.4 m/s
301.65 K | 732.643 kg/m3 | 1024.3 m/s
303.15 K | 729.112 kg/m3 and 729.99 kg/m3 | 1013.9 m/s and 1014 m/s and 1012.8 m/s
305.65 K | 727.325 kg/m3 and 726.444 kg/m3 | 1002.4 m/s and 1002.7 m/s and 1001.4 m/s
308.15 K | 723.763 kg/m3 and 724.645 kg/m3 | 990.99 m/s and 991.34 m/s and 989.9 m/s
310.65 K | 721.069 kg/m3 and 721.953 kg/m3 | 979.62 m/s and 980 m/s and 978.47 m/s
313.15 K | 718.357 kg/m3 and 719.245 kg/m3 | 968.16 m/s and 968.63 m/s and 967.03 m/s
315.65 K | 715.636 kg/m3 and 716.525 kg/m3 | 956.8 m/s and 957.31 m/s and 955.73 m/s
318.15 K | 712.897 kg/m3 and 713.786 kg/m3 | 945.54 m/s and 946.03 m/s and 944.34 m/s
320.65 K | 710.141 kg/m3 and 711.028 kg/m3 | 934.24 m/s and 934.76 m/s and 933.01 m/s
323.15 K | 707.381 kg/m3 and 708.28 kg/m3 | 922.97 m/s and 923.46 m/s and 921.93 m/s

COC(C)(C)C [2-methoxy-2-methylpropane] + CCc1ccccc1
[2], x1 = 1
Conditions | mass density [kg/m3] | speed of sound [m/s]
288.15 K | 744.861 | 1083.4
290.65 K | 742.259 | 1071.6
293.15 K | 739.654 | 1060
295.65 K | 737.036 | 1048.5
298.15 K | 734.406 | 1036.9
300.65 K | 731.766 | 1025.4
303.15 K | 729.112 | 1013.9
305.65 K | 726.444 | 1002.4
308.15 K | 723.763 | 990.99
310.65 K | 721.069 | 979.62
313.15 K | 718.357 | 968.16
315.65 K | 715.636 | 956.8
318.15 K | 712.897 | 945.54
320.65 K | 710.141 | 934.24
323.15 K | 707.381 | 922.97

CC(C)(C)O [2-methylpropan-2-ol]
[1]
Conditions | mass density [kg/m3] | speed of sound [m/s]
301.65 K | 777.762 | 1109
303.15 K | 775.212 | 1099
305.65 K | 772.623 | 1088.3
308.15 K | 770.015 | 1077.7
310.65 K | 767.391 | 1067.2
313.15 K | 764.739 | 1056.7
315.65 K | 762.054 | 1046.1
318.15 K | 759.355 | 1035.7
320.65 K | 756.633 | 1025.2
323.15 K | 753.891 | 1014.8

CC(C)(C)O [2-methylpropan-2-ol] + COC(C)(C)C
[2], x2 = 0
Conditions | mass density [kg/m3] | speed of sound [m/s]
301.65 K | 777.762 | 1109
303.15 K | 775.212 | 1099
305.65 K | 772.623 | 1088.3
308.15 K | 770.015 | 1077.7
310.65 K | 767.391 | 1067.2
313.15 K | 764.739 | 1056.7
315.65 K | 762.054 | 1046.1
318.15 K | 759.355 | 1035.7
320.65 K | 756.633 | 1025.2
323.15 K | 753.891 | 1014.8
